# Laboratory results published in patent US9732367B2, “Cell lines” (MEDIMMUNE LIMITED, priority 2012, dated 2017).
# Legend:
# Type in all cases: cell-based
# [1] = target: T1, pylRS/tRNA pair (Methanosarcina mazei, UniProt Q8PWY1); assay: GFP assay: translational testing of pyrrolysine analogs as nnAAs; conditions: nnAA 2 mM, 2-3 days
# T1 construct: expressed in transfected cells; host or cells: HEK293 clone 3H7
# Source text: An in vitro cell based assay was developed to assess the compatibility of the pylRS/tRNA pair and the pyrrolysine analogs of the present invention (nnAAs) by and the efficiency of nnAAs integration into a target protein. For this, HEK293 cells stably expressing pylRS (3H7) were transiently transfected with plasmids for the expression of tRNApyl and a reporter construct encoding GFPY40 (containing amber codon in place of tyrosine at amino acid residue number 40 (where 1 is the initiator methionine)) using standard transfection protocols. Transfected cells were incubated with nnAAs at 2 mM for 2-3 days GFP production was analyzed qualitatively by visual inspection under the microscope. The GFP fluorescence was quantified by flow cytometry using an Accuri flow cytometer and the geometric mean of the fluorescent cells determined.
# This cell based assay was used to determine whether the different nnAAs were suitable substrates for the pylRS and allowed its translation into a target protein. Cells expressing the PylRS/tRNApyl pair and containing a vector encoding the GFPY40 reporter gene were incubated in the presence of the nnAAs. nnAAs that are readily utilized by the PylRS/tRNApyl pair support the translation of the nnAA into the amber site of GFP and allow read-through of the gene producing full length GFP (fluorescent protein). The fluorescence intensity of the cells depends on the efficiency of nnAA incorporation. Thus, nnAAs that are poorly utilized produce weakly fluorescent or non-fluorescing cells. […] Furthermore, the relative expression levels in each sample was compared to those generated by substrates known to be efficiently utilized by pylRS.
# [2] = target: T2, pylRS (Methanosarcina mazei, UniProt Q8PWY1); assay: In vitro GFPY40 functional assay: dnnAA competition with lys azide in HEK293 cells stably expressing pylRS; conditions: for reduction of GFP expression relative to samples lacking dnnAA (geometric mean fluorescence intensity): lys azide with 0.5 mM, 1 mM and 2 mM dnnAA
# T2 construct: expressed in transfected cells
# T2 sequence (Q8PWY1 whole entry): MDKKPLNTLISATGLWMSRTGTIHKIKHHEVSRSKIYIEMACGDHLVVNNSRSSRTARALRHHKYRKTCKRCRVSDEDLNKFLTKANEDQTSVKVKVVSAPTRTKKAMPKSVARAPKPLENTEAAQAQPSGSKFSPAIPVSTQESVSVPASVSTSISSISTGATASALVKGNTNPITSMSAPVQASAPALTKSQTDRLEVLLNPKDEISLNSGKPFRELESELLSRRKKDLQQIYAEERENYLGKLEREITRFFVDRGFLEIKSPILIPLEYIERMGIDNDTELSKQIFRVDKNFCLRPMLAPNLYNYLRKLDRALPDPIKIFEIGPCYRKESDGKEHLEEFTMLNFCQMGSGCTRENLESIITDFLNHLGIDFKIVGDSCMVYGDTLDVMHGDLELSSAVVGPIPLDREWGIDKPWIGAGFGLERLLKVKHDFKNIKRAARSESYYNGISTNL
# Source text: Effective dnnAAs were identified by their ability to compete with a high affinity substrate for pylRS (lys-azide) in an in vitro assay, for their ability to reduce background amber suppression levels observed with a reporter protein, and for their ability to improve the viability and function of cells previously selected for high pylRS/tRNA activity.
# To identify analogues that could effectively compete for pylRS binding with lys-azide, dnnAAs were first tested for function in an in vitro functional assay based on the ability of cells expressing WT pylRS and tRNApyl to introduce a nnAA at a target site in the reporter protein GFPY40. This reporter contains an amber codon in its open reading frame that, in the absence of amber suppression, generates a truncated protein that is not fluorescent. In the event of amber suppression, a full length GFP protein is generated that is detectable by fluorescence detection methods. In this assay, HEK293 cells stably expressing pylRS, were transiently transfected with a tRNA expression construct and the GFPY40 reporter cassette. Cells were then incubated with 0.5 mM lys azide in the presence or absence of different concentrations of dnnAA ranging from 0.5 mM to 2 mM. GFP fluorescence levels were then quantified by flow cytometry. For this assay the proportion of fluorescent cells in each condition was determined and plotted. As the dnnAAs are expected to compete with the nnAA (lys-azide) for pylRS/tRNA binding, an effective dnnAA should reduce or prevent the expression of full length GFP (as described above dnnAAs can be delivered by the tRNA to the amber site, but cannot propagate protein synthesis).
# A similar in vitro assay was used to gauge the effectiveness of the dnnAAs of Formula VIIB listed in Table 1 where a description of the amino acids tested and a summary of the results are shown For this assay the geometric mean fluorescence intensity of each sample was determined by flow cytometry and plotted. For each dnnAA tested control cells transfected with wild type GFP were measured as a positive control. In addition cells transfected with the reporter GFPY40 and exposed to 0.5 mM lys azide or 2 mM lys azide were used to determine maximal GFP expression levels in the absence of an inhibitor. In each case robust GFP expression levels were observed. To test whether any of the dnnAA could reduce the efficacy of GFP expression, cells were incubated in the presence of 0.5 mM, 1 mM and 2 mM […]. […] Thus, dnnAAs of the present invention can compete with the lys-azide nnAA for binding to the pylRS and interfere with the physiological mechanism of nnAA introduction. Cells transfected with the pylRS/tRNA pair and the GFPY40 reporter construct but not exposed to either lys-azide or a dnnAA were used to determine levels of background amber suppression and used as a negative control. In each case low GFP expression levels were observed.
# [3] = test system: background amber suppression; assay: Background amber suppression (GFPY40 reporter, pylRS/tRNApyl, dnnAA without nnAA); conditions: for % Reduction at 2 mM Decoy: reduction in GFP expression relative to control not exposed to dnnAA, 3 days; for reduction in background amber suppression levels: dnnAA at 0.5 mM, 1 mM and 2 mM
# Method: The competitive assay for dnnAA inhibition in the presence of a high affinity substrate identified dnnAAs that compete for binding with to the pylRS and thus are specific inhibitors of the pylRS/tRNA. However, the decoy nnAA is intended to reduce the levels of background amber suppression in the absence of nnAA. To determine if background amber suppression levels could be reduced, we incubated cells containing the GFPY40 reporter construct and the pylRS/tRNApyl pair in medium containing one of the dnnAAs. To do this, HEK293 cells stably expressing pylRS were transiently transfected with a tRNA expression construct and the GFPY40 reporter cassette. After 3 days of incubation, cells were assayed for expression of GFP by flow cytometry and geometric mean fluorescence intensity of the samples determined. We have previously observed that cells containing the full complement of the pylRS/tRNA amber suppression system show detectable expression of the GFP reporter construct that is above what is observed in cells lacking the amber suppression system. […] To identify dnnAAs capable of reducing background amber suppression levels the transfected cells were incubated with each of the dnnAAs at 0.5 mM, 1 mM and 2 mM and GFP levels measured by flow cytometry.
# The decrease in background amber suppression dependent GFP expression was dose dependent and improved as the dnnAA concentration increased. […] This feature is an attractive characteristic for platform development as it enables the repression of background amber suppression but the system can be activated upon addition of a strong pylRS substrate such as lys-azide. […] Their efficacy was quantified by the reduction in GFP expression relative to a control sample (not exposed to dnnAA) and the data are summarized in Table 1.
# [4] = test system: CHO cells stably expressing pylRS and tRNApyl and an IgG directed against her2/neu containing an amber codon; assay: Growth and viability of pylRS/tRNApyl cell line treated with lys azide and dnnAA
# Source text: To examine whether the dnnAAs of the invention could function to improve the viability of cells containing pylRS and tRNApyl we monitored the growth and viability of a cell line, stably expressing pylRS and tRNApyl. For this assay CHO cells stably expressing pylRS and tRNApyl and an IgG directed against her2/neu containing an amber codon in the heavy chain, shown to effectively incorporate nnAA into the expressed IgG thus producing an antibody containing a nnAA, were used for this experiment. Despite a high expression level of pylRS/tRNApyl pair, this cell line has very robust cell growth characteristics when grown in medium lacking nnAA. The presence of a highly expressed target containing an amber codon likely has a protective effect on the cells by supplying them with high levels of amber codons that absorb the amber suppression activity and protects the cells from the effects of background amber suppression at essential genes. However, upon addition of the nnAA (lys-azide) to the growth medium, and activation of the amber suppression machinery, a decrease in cell growth rate is observed. […] To determine whether a dnnAA can rescue this effect, cells cultured in serum free medium were grown to a cell density of 0.5×10^6 cells/mL and subsequently treated with 0.5 mM lys azide alone or in combination with 2 Mm dnnAA. Cell viability and cell numbers were monitored daily over seven days. Cells treated with lys azide alone reached a cell density just below 1×10^6 cells/mL on day 3 after nnAA addition and remained at this density for the remainder of the assay (seven days) (FIG. 15A) The lack of growth was not likely due to loss of viability as the culture retained high viability throughout the experiment (˜70% viable cells) (FIG. 15B) Cultures treated with 2 mM Compound of formula VIIB.4, or 2 mM Formula VIIB.1 in combination with 0.5 mM lys-azide supported continued growth of the culture that reached over 1.5×10^6 cells/mL and retained a cell viability of 90%.
# [5] = Formula V analogs, geometric mean
# [6] = 2 mM dnnAA with 0.5 mM lys-azide
# [7] = 2 mM dnnAA with 0.5 mM lys-azide, seven days
# T1 sequence (Q8PWY1 whole entry): as above
structure (smiles),measurement,setting,value
"C#CCOC(=O)NCCCC[C@H](N)C(=O)O [Formula V.2, (2S)-2-amino-6-{[(prop-2-yn-1-yloxy)carbonyl]amino}hexanoic acid]",Positive GFP,[1]; Formula V analogs,Yes
same,MFI,[1]; [5],"1,676,250"
same,MFI,"[1]; Formula V analogs, geometric mean, listed as V.2",1676250
"CC(C)(C)OC(=O)NCCCCCC(=O)O [Formula VIIB.4, 6-{[(tert-butoxy)carbonyl]amino}hexanoic acid]",number of fluorescent cells (GFPY40),[2]; 0.5 mM lys azide with dnnAA 0.5 mM to 2 mM,concomitant reduction in the number of fluorescent cells
same,GFP expression with dnnAA alone (amber codon readthrough),"[2]; dnnAA alone, no lys azide",did not induce GFP expression
same,effect on GFPwt expression (non-specific effects),[2]; reporter lacking an amber codon,no effect on protein expression
same,% Reduction at 2 mM Decoy,[3],46.3%
same,prevention of cytostatic effects of amber suppression activation,[4]; [6],prevent the cytostatic effects
same,cell viability,[4]; [7],90%
"O=C(O)CCCCCNC(=O)OCCCl [Formula VIIB.3, 6-{[(2-chloroethoxy)carbonyl]amino}hexanoic acid]",reduction of GFP expression relative to samples lacking dnnAA (geometric mean fluorescence intensity),[2],greatest reduction of GFP expression
same,reduction in background amber suppression levels,[3],reduction in the background amber suppression levels
same,% Reduction at 2 mM Decoy,[3],49.7%
same,cell density,[4]; [7],< 0.5 ×10^6 cells/mL
same,cell viability,[4]; [7],30-40%
"[N-]=[N+]=NCCOC(=O)NCCCC[C@H](N)C(=O)O [Formula V.1, (2S)-2-amino-6-{[(2-azidoethoxy)carbonyl]amino}hexanoic acid]",Positive GFP,[1]; Formula V analogs,Yes
same,MFI,[1]; [5],"931,289"
same,MFI,"[1]; Formula V analogs, geometric mean, listed as V.1",931289
same,viable cells,[4]; 0.5 mM lys azide alone,~70%
same,cell density,"[4]; 0.5 mM lys azide alone, day 3 to day 7",below 1 ×10^6 cells/mL
"C#CCOC(=O)NCCCCCC(=O)O [Formula VIIB.5, 6-{[(prop-2-yn-1-yloxy)carbonyl]amino}hexanoic acid]",reduction of GFP expression relative to samples lacking dnnAA (geometric mean fluorescence intensity),[2],relative reduction in GFP expression was much lower
same,reduction in background amber suppression levels,[3],reduction in the background amber suppression levels
same,% Reduction at 2 mM Decoy,[3],35%
same,% Reduction at 2 mM Decoy,[3]; listed as VIIB.5,35.0%
"[N-]=[N+]=NCCNC(=O)OCCCC[C@H](N)C(=O)O [Formula VI.1, (2S)-2-amino-6-{[(2-azidoethyl)carbamoyl]oxy}hexanoic acid]",MFI,[1]; Formula VI analogs,904206
same,Positive GFP Assay,[1]; Formula VI analogs,incorporated in the GFP reporter gene and yield green cells and Yes
"[N-]=[N+]=NCCOC(=O)NCCCCCC(=O)O [Formula VIIB.6, 6-{[(2-azidoethoxy)carbonyl]amino}hexanoic acid]",reduction of GFP expression relative to samples lacking dnnAA (geometric mean fluorescence intensity),[2],greatest reduction of GFP expression
same,reduction in background amber suppression levels,[3],reduction in the background amber suppression levels
same,% Reduction at 2 mM Decoy,[3],32%
same,% Reduction at 2 mM Decoy,[3]; listed as VIIB.6,32.7%
"C=CCOC(=O)NCCCCCC(=O)O [Formula VIIB.1, 6-{[(prop-2-en-1-yloxy)carbonyl]amino}hexanoic acid]",reduction of GFP expression relative to samples lacking dnnAA (geometric mean fluorescence intensity),[2],greatest reduction of GFP expression
same,reduction in background amber suppression levels,[3],reduction in the background amber suppression levels
same,% Reduction at 2 mM Decoy,[3],62.5%
same,prevention of cytostatic effects of amber suppression activation,[4]; [6],prevent the cytostatic effects
same,cell viability,[4]; [7],90%
"C=CCNC(=O)OCCCC[C@H](N)C(=O)O [Formula VI.3, (2S)-2-amino-6-{[(prop-2-en-1-yl)carbamoyl]oxy}hexanoic acid]",Positive GFP Assay,[1]; Formula VI analogs,incorporated in the GFP reporter gene and yield green cells and Yes
